Experimental data as given in patent US10052320B2, “Substituted quinoxalines as FGFR kinase inhibitors” (ASTEX THERAPEUTICS LIMITED, priority 2011, dated 2018).
Where two headings read alike, the source gives them in different places.

Legend:
[1] = tested on: Ba/F3-FGFR1-transfected cells in the presence of 10 ng/ml murine IL3; assay: Ba/F3-FGFR1 (plus IL3) cellular proliferation counterscreen, Alamar Blue; format: cell-based; conditions: Mus musculus
Procedure, shortened: (§1)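 24 h cmpd exposure, 37 °C/5% CO2; phenol red-free RPMI-1640, 10% FBS; 20000 cells/well (384) or 10000 cells/well (96); Alamar Blue (0.15 mM resazurin) 4 h; RFU ex 540/em 590.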

[2] = target: Ba/F3-FGFR1-transfected cells (Homo sapiens, UniProt P11362); assay: Ba/F3-FGFR1 (minus IL3) cellular proliferation assay, Alamar Blue; format: cell-based; conditions: for BAF3-FGFR 1 (MIN IL3) 384 well pIC50: minus IL3, 384 well; for BAF3-FGFR 1 (MIN IL3) 96 well pIC50: minus IL3, 96 well
Ba/F3-FGFR1-transfected cells, sequence (P11362 whole entry, change not shown): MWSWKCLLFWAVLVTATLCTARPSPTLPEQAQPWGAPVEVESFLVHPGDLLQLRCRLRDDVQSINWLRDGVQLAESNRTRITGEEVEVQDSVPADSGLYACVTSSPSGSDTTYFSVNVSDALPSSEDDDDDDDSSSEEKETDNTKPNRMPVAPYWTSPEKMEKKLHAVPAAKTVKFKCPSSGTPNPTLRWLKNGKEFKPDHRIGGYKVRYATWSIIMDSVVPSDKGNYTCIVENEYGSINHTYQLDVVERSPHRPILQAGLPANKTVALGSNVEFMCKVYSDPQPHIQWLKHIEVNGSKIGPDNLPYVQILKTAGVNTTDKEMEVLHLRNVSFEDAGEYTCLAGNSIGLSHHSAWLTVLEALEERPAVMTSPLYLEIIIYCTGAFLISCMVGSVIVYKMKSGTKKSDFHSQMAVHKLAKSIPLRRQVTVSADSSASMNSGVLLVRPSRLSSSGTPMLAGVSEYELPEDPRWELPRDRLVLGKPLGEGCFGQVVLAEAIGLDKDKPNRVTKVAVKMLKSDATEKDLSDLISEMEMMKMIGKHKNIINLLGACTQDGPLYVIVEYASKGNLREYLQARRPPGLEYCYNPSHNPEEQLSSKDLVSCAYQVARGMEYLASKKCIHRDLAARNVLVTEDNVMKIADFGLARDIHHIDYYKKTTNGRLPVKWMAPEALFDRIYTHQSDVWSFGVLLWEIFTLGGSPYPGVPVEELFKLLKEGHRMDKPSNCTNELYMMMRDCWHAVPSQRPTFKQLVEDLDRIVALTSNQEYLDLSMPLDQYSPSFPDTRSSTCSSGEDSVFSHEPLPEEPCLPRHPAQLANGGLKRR
Procedure, shortened: as §1

[3] = target: FGFR2 (h) (Homo sapiens, UniProt P21802); assay: FGFR2 (enzymatic assay), TR-FRET; format: biochemical; conditions: read-out: FGFR 2 pIC50 (converted)
FGFR2 (h), sequence (P21802 22-821): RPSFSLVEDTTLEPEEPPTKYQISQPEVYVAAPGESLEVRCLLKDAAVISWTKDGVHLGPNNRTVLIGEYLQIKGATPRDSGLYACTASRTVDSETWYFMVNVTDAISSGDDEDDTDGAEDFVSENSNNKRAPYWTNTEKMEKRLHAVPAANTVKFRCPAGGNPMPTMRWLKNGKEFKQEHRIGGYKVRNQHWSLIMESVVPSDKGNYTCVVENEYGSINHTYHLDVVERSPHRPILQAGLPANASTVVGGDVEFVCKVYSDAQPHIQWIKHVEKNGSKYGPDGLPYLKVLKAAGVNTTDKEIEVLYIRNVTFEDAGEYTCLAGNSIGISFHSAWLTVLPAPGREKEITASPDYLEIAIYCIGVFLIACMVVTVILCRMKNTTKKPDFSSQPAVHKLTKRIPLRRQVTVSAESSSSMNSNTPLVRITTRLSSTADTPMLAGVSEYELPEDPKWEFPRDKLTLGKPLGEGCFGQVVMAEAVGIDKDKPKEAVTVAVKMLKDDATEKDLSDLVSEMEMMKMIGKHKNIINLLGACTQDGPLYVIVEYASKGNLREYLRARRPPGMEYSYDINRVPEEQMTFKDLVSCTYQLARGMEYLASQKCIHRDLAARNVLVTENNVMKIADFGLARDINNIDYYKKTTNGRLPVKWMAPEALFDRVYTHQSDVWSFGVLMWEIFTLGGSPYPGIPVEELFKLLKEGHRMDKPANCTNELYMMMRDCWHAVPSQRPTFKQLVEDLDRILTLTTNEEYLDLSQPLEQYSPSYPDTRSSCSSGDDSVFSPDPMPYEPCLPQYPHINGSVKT
Method: In a final reaction volume of 30 μL, FGFR2 (h) (150 ng/ml) was incubated with 50 mM HEPES pH 7.5, 6 mM MnCl2, 1 mM DTT, 0.1 mM Na3VO4, 0.01% Triton-X-100, 500 nM Btn-Flt3 and 0.4 μM ATP in the presence of compound (1% DMSO final). […] Time-Resolved Fluorescence Resonance Energy Transfer (TR-FRET) signal (ex340 nm. Em 620 nm, em 655 nm) was measured afterwards and results are expressed in (Relative Fluorescence Units).

[4] = target: FGFR4 (h) (Homo sapiens, UniProt P22455); assay: FGFR4 (enzymatic assay), TR-FRET; format: biochemical; conditions: read-out: FGFR 4 pIC50 (converted)
FGFR4 (h), sequence (P22455 22-802): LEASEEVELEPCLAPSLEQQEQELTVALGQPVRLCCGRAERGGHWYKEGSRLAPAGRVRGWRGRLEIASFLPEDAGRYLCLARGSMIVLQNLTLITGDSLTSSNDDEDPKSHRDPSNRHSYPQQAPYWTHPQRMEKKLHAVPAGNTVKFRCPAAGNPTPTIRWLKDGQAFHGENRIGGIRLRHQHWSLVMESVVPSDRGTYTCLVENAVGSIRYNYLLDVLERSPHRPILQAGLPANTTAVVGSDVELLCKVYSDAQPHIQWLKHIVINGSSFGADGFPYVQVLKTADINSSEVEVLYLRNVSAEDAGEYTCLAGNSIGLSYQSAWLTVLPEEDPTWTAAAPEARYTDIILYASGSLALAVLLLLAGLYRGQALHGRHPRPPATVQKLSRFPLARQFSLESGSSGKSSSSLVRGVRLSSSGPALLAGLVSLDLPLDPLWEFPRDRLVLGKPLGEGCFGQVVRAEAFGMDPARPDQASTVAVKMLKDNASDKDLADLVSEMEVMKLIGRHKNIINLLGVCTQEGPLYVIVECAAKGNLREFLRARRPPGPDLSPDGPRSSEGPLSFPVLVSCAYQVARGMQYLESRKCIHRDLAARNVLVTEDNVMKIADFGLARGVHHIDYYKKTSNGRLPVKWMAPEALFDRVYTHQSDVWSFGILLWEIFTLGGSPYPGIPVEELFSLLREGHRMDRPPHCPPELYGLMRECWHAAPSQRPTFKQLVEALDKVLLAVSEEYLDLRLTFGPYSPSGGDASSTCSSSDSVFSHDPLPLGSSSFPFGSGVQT
Method: (§2) In a final reaction volume of 30 μL, FGFR4 (h) (60 ng/ml) was incubated with 50 mM HEPES pH 7.5, 6 mM MnCl2, 1 mM DTT, 0.1 mM Na3VO4, 0.01% Triton-X-100, 500 nM Btn-Flt3 and 5 μM ATP in the presence of compound (1% DMSO final). […] Time-Resolved Fluorescence Resonance Energy Transfer (TR-FRET) signal (ex340 nm. Em 620 nm, em 655 nm) was measured afterwards and results are expressed in RFU (Relative Fluorescence Units).

[5] = tested on: Ba/F3-Flt3-transfected cells in the presence of 10 ng/ml murine IL3; assay: Ba/F3-Flt3 (plus IL3) cellular proliferation counterscreen, Alamar Blue; format: cell-based; conditions: Mus musculus; plus 10 ng/ml murine IL3; read-out: BAF3-FLT3 (PLUS IL3) 384 well pIC50 (converted)
[6] = target: FGFR3 (h) (Homo sapiens, UniProt P22607); assay: FGFR3 (enzymatic assay), TR-FRET; format: biochemical; conditions: read-out: FGFR 3 pIC50 (converted)
FGFR3 (h), sequence (P22607 23-806): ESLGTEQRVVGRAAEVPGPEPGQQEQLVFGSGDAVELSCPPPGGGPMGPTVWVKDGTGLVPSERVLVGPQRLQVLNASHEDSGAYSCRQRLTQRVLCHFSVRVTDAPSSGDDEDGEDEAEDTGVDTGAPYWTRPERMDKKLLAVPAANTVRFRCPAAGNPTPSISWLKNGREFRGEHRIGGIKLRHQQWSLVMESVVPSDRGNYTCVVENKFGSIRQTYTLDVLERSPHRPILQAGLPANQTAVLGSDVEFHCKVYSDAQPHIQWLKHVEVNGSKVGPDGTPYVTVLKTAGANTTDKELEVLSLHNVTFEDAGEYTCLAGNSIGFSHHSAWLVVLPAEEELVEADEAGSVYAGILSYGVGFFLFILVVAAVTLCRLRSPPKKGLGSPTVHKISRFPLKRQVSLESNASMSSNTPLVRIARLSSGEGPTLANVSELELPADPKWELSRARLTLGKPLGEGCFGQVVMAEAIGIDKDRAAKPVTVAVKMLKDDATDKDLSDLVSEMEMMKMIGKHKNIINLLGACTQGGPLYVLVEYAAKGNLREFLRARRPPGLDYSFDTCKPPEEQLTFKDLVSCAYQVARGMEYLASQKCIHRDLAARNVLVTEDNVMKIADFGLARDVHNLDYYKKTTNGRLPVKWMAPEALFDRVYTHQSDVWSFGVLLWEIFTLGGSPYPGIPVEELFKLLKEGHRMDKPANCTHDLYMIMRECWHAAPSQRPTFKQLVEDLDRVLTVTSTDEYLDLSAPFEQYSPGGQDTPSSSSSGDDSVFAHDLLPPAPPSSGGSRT
Method: as §2, with “μL, FGFR3” for “μL, FGFR4”, “(h) (40” for “(h) (60”, “and 25” for “and 5”

[7] = plus IL3, 384 well, read-out: BAF3-FGFR 1 (PLUS IL3) 384 well pIC50 (converted)
[8] = plus IL3, 96 well, read-out: BAF3-FGFR 1 (PLUS IL3) 96 well pIC50 (converted)

Compound | IC50 [1, 7] | BAF3-FGFR 1 (MIN IL3) 384 well pIC50 [2] | IC50 [3] | IC50 [4] | IC50 [5] | IC50 [6] | melting point | IC50 [1, 8] | BAF3-FGFR 1 (MIN IL3) 96 well pIC50 [2]
COc1cc(OC)cc(N(CCO)c2ccc3ncc(-c4cccnc4)nc3c2)c1 [Compound 9] | > 10000 nM | 6.25 | 17 nM | 52.5 nM | > 10000 nM | 4.68 nM | 151 °C | – | –
COc1cc(OC)cc(N(CCNC(C)C)c2ccc3ncc(-c4ccncc4)nc3c2)c1 [Compound 12] | > 10000 nM | 7.27 | 2.45 nM | 20.4 nM | > 10000 nM | 4.47 nM | 118 °C | – | –
COc1cc(OC)cc(N(CC2CC2)c2ccc3ncc(-c4nnn[nH]4)nc3c2)c1 [Compound 41] | > 10000 nM | <5 | 178 nM | 79.4 nM | > 10000 nM | 64.6 nM | 216 °C | > 10000 nM | <5
COc1cc(OC)cc(N(CC2CC2)c2ccc3ncc(-c4cn(CCN5CCOCC5)nn4)nc3c2)c1 [Compound 24] | > 10000 nM | 5.39 | 25.1 nM | 191 nM | > 10000 nM | 9.55 nM | 128 °C | > 10000 nM | 5.42
